Reference: patent US20250250268A1 (SHANGHAI HAOYUAN MEDCHEMEXPRESS CO., LTD., priority 2022, published 2025)
Entries after “also recorded” stand apart in the source; their conditions may differ.

Experiments:
[1] = Stability tests of crystal forms under accelerated and low-temperature storage (XRPD, HPLC); type: physicochemical; conditions: for Polymorphic changes on storage (XRPD): accelerated test conditions (40° C., 75% RH) and low-temperature storage conditions (−20° C.)
[2] = tested on: microglia; experiment: Pharmacological animal experiment: microglia clearance in mice fed PLX5622 crystal forms (IBA1 staining, Image j counting); type: in vivo, C57BL/6J mice; conditions: for 7-day clearance rate / 14-day clearance rate / 7-day number of cells / 14-day number of cells: C57BL/6J mice, in AIN-76A food; for 7-day clearance rate / 14-day clearance rate: administration every other day, average clearance rate of microglia; for 7-day clearance rate / 7-day number of cells: 7 days; for 14-day clearance rate / 14-day number of cells: 14 days; for 7-day number of cells / 14-day number of cells: average statistical number of microglia (total number in brains); for Microglia clearance rate compared with Form A: 7-day or 14-day clearance rate, mice
Description: Mice were adaptively fed for 3-6 days upon arrival in the mouse room, with AIN-76A food. Group A was administered PLX5622 compound Form A, and Group B was administered PLX5622 compound Form B.
Formal administration: Administration was conducted every other day, on days 1, 3, 5, 7, 9, 11, and 13. Each time of administration required weighing, and the amount was adjusted to 4 g per mouse (actual consumption around 3 g per mouse).
After anesthesia, mice were immobilized using tape or needles/pins, and the fur on the lateral thorax was lifted with forceps. The skin was then cut with scissors to expose the white sternum. The diaphragm was carefully incised with fine scissors, taking care not to damage the above heart.
A small incision was made on the right atrium. The heart was fixed with forceps, and an injection needle was inserted into the left ventricle from the apex of the heart at an angle roughly parallel to the left-right midline of the heart.
Sucrose gradient dehydration: The mouse brains were fixed in 4% paraformaldehyde overnight and then dehydrated with 20% sucrose solution until the material sank to the bottom, followed by dehydration with 30% sucrose solution until the material sank to the bottom. Embedding and sectioning: get 25-40 μm sections, which are the tissues that need to be stained.
• 1. After washing the sections, blocking was initiated with 5% BSA in PBST for 2 hours. • 2. Incubation with the primary antibody, IBA1 (1:500) in 1% BSA in PBST, at 4° C. for at least 14 hours. • 3. Incubation with Alexa Fluor-conjugated secondary antibody (1:500) in 1% BSA in PBST, at room temperature for 2 hours. • 4. Washed with PBS 3-5 times for 10 minutes each, stained with DAPI, followed by addition of anti-fade reagent, dried overnight, and then photographed and scanned for analysis.
Image j counting: All microglia with complete morphology need to be counted.
Among them, the mice are all 3-month-old male mice; the clearance rates are the average clearance rate and the average statistical number of microglia (total number in brains).

[3] = Drying transformation relationship of Form A-F (vacuum drying, XRPD); conditions: for Description / XRPD results: 60-80° C. vacuum drying; for Stability / conversion of crystal form on drying: dried at high temperatures, solvent removed
[4] = Pharmacokinetic determination in rats (feed administration, plasma and brain); type: in vivo; conditions: 1200 ppm in AIN-76A standard feed, 7-day and 14-day groups, Cmax and AUC
Description: Plasma or brain samples from the 2 groups were collected for pharmacokinetic (PK) parameter analysis. For the 7-day group, plasma samples were collected on day 1, day 3, and day 7; after the rats were euthanized on day 7, brain tissue samples were collected. For the […], plasma samples were collected from rats on day 10 and 14; on day 14, the mice were euthanized, and brain tissue samples were collected.
For the processing of plasma samples, rats were anesthetized on days 1, 3, 7 and 10 and 14, and approximately 150 μL of blood was collected via cardiac puncture into anticoagulant centrifuge tubes containing K 2 EDTA. Within 15 minutes of sampling, plasma was obtained by centrifugation at 2000 g for 5 minutes at 4° C. and stored at below −60° C. until analysis. For the processing of brain tissue samples, the rats were euthanized on day 7 and 14, and then the brain tissue was collected. The residual blood on the surface of the tissue was washed away with normal saline, dried with filter paper, weighed, and frozen in dry ice, then store in a refrigerator below −60° C. until sample analysis. Pharmacokinetic (PK) parameters Cmax and AUC were calculated based on a non-compartmental model using WinNonlin 8.2 software. Drug concentrations in mouse plasma and brain tissue were determined.

Row | Compound | Purity (by HPLC %) ([1]; 40° C./75% RH, 5 Days) | XRPD ([1]; 40° C./75% RH, 5 Days) | Purity (by HPLC %) ([1]; 40° C./75% RH, 10 Days) | XRPD ([1]; 40° C./75% RH, 10 Days) | Purity (by HPLC %) ([1]; Initial, 0 Day) | XRPD ([1]; Initial, 0 Day) | Polymorphic changes on storage (XRPD) [1] | Purity (by HPLC %) ([1]; −20° C., 10 months) | XRPD ([1]; −20° C., 10 months) | Stability / conversion of crystal form on drying [3] | Description ([3]; 24 hours) | XRPD results ([3]; 24 hours) | 7-day clearance rate [2] | 14-day clearance rate [2] | 7-day number of cells [2] | 14-day number of cells [2] | other results
1 | COc1ncc(F)cc1CNc1ccc(Cc2c[nH]c3ncc(C)cc23)c(F)n1 [Form A, 6-Fluoro-N-((5-fluoro-2-methoxypyridin-3-yl)methyl)-5-((5-methyl-1H-pyrrolo[2,3-b]pyridin-3-yl)methyl) pyridin-2-amine] | 99.90% | Form A | 99.90% | Form A | 99.90% | Form A | did not undergo any polymorphic changes | 99.90% | Form A | remain stable | – | – | 72.6% | 75.1% | (1337) | (922) | Individual Impurity (RRT/%) RRT = 0.33 ([1]; 40° C./75% RH, 5 Days): 0.06%; Individual Impurity (RRT/%) RRT = 1.50 ([1]; 40° C./75% RH, 5 Days): 0.04%; Individual Impurity (RRT/%) RRT = 0.33 ([1]; 40° C./75% RH, 10 Days): 0.06%; Individual Impurity (RRT/%) RRT = 1.50 ([1]; 40° C./75% RH, 10 Days): 0.04%; Individual Impurity (RRT/%) RRT = 0.33 ([1]; Initial, 0 Day): 0.06%; Individual Impurity (RRT/%) RRT = 1.50 ([1]; Initial, 0 Day): 0.04%; Individual Impurity (RRT/%) RRT = 0.33 ([1]; −20° C., 10 months): 0.06%; Individual Impurity (RRT/%) RRT = 1.50 ([1]; −20° C., 10 months): 0.04%; Description ([3]; 2 days): White to off-white; XRPD results ([3]; 2 days): Form A
2 | COc1ncc(F)cc1CNc1ccc(Cc2c[nH]c3ncc(C)cc23)c(F)n1 [Form B, 6-Fluoro-N-((5-fluoro-2-methoxypyridin-3-yl)methyl)-5-((5-methyl-1H-pyrrolo[2,3-b]pyridin-3-yl)methyl) pyridin-2-amine] | 99.92% | Form B | 99.92% | Form B | 99.92% | Form B | did not undergo any polymorphic changes | 99.92% | Form B | remain stable | – | – | 87% | 90% | (482) | (377) | Individual Impurity (RRT/%) RRT = 1.04 ([1]; 40° C./75% RH, 5 Days): 0.05%; Individual Impurity (RRT/%) RRT = 1.29 ([1]; 40° C./75% RH, 5 Days): 0.03%; Individual Impurity (RRT/%) RRT = 1.04 ([1]; 40° C./75% RH, 10 Days): 0.05%; Individual Impurity (RRT/%) RRT = 1.29 ([1]; 40° C./75% RH, 10 Days): 0.03%; Individual Impurity (RRT/%) RRT = 1.04 ([1]; Initial, 0 Day): 0.05%; Individual Impurity (RRT/%) RRT = 1.29 ([1]; Initial, 0 Day): 0.03%; Individual Impurity (RRT/%) RRT = 1.04 ([1]; −20° C., 10 months): 0.05%; Individual Impurity (RRT/%) RRT = 1.29 ([1]; −20° C., 10 months): 0.03%; Microglia clearance rate compared with Form A [2]: better than Form A; Microglia clearance rate compared with Form A ([2]; listed as crystal form B): better clearance rate of microglia cells at 7 or 14 days compared to crystal form A; also recorded: higher rate of microglia cell clearance at 7 days or 14 days; Pharmacokinetic performance [4]: better pharmacokinetic performance; Description ([3]; 3 days): White to off-white; XRPD results ([3]; 3 days): Form B
3 | COc1ncc(F)cc1CNc1ccc(Cc2c[nH]c3ncc(C)cc23)c(F)n1 [Form C, 6-Fluoro-N-((5-fluoro-2-methoxypyridin-3-yl)methyl)-5-((5-methyl-1H-pyrrolo[2,3-b]pyridin-3-yl)methyl) pyridin-2-amine] | – | – | – | – | – | – | – | – | – | converted to Form A | White to off-white | Form A | – | – | – | – | –

The next lines start with results.

Row | Purity (by HPLC %) ([1]; 40° C./75% RH, 5 Days) | XRPD ([1]; 40° C./75% RH, 5 Days) | Purity (by HPLC %) ([1]; 40° C./75% RH, 10 Days) | XRPD ([1]; 40° C./75% RH, 10 Days) | Purity (by HPLC %) ([1]; Initial, 0 Day) | XRPD ([1]; Initial, 0 Day) | Polymorphic changes on storage (XRPD) [1] | Purity (by HPLC %) ([1]; −20° C., 10 months) | XRPD ([1]; −20° C., 10 months) | Stability / conversion of crystal form on drying [3] | Description ([3]; 24 hours) | XRPD results ([3]; 24 hours) | Compound | 7-day clearance rate [2] | 14-day clearance rate [2] | 7-day number of cells [2] | 14-day number of cells [2] | other results
4 | – | – | – | – | – | – | – | – | – | converting it to Form A | White to off-white | Form A | COc1ncc(F)cc1CNc1ccc(Cc2c[nH]c3ncc(C)cc23)c(F)n1 [Form D, 6-Fluoro-N-((5-fluoro-2-methoxypyridin-3-yl)methyl)-5-((5-methyl-1H-pyrrolo[2,3-b]pyridin-3-yl)methyl) pyridin-2-amine] | – | – | – | – | –
5 | – | – | – | – | – | – | – | – | – | – | White to off-white | Form A + B | COc1ncc(F)cc1CNc1ccc(Cc2c[nH]c3ncc(C)cc23)c(F)n1 [Form E, 6-Fluoro-N-((5-fluoro-2-methoxypyridin-3-yl)methyl)-5-((5-methyl-1H-pyrrolo[2,3-b]pyridin-3-yl)methyl) pyridin-2-amine] | – | – | – | – | –
6 | – | – | – | – | – | – | – | – | – | – | White to off-white | Form A + B | COc1ncc(F)cc1CNc1ccc(Cc2c[nH]c3ncc(C)cc23)c(F)n1 [Form F, 6-Fluoro-N-((5-fluoro-2-methoxypyridin-3-yl)methyl)-5-((5-methyl-1H-pyrrolo[2,3-b]pyridin-3-yl)methyl) pyridin-2-amine] | – | – | – | – | –
